US12448377B2, “Heterocyclic compound” (Takeda Pharmaceutical Company Limited, priority 2019, dated 2025)

Target: T1, human orexin type 2 receptor (Homo sapiens, UniProt O43614)
T1 construct: expressed in transfected cells
T1 sequence (O43614 1-444): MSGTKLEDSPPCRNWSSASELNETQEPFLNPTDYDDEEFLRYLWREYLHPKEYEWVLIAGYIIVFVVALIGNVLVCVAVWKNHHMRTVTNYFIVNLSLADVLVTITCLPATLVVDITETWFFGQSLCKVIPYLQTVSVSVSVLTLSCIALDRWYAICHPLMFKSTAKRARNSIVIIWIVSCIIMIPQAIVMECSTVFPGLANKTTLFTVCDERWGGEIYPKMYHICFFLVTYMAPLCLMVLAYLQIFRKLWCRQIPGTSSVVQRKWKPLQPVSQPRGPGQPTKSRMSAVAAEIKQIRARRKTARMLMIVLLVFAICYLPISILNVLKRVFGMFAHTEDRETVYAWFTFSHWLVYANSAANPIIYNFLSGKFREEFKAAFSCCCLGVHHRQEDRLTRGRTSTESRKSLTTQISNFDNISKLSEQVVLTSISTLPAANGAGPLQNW
Assay: Measurement of orexin type 2 receptor agonist activity (calcium fluorescence, CHO cells forcibly expressing human OX2 receptor)
Assay type: cell-based
Conditions: compound at 3 μM, DMSO = 0%, orexin A (human) 10 nM = 100%
Excerpt: To obtain a cell clone stably expressing human orexin type 2 receptor, human orexin type 2 receptor cDNA was inserted into pcDNA3.1(+) plasmid vector (Invitrogen), and a plasmid DNA for expression of human orexin type 2 receptor (pcDNA3.1(+)/hOX2R) was cloned. The plasmid DNA was introduced into CHO-K1 cell by an electroporation method, and human orexin type 2 receptor-expressing clonal cells were obtained by limiting dilution method using G418 drug resistance as a selection marker.
CHO cells forcibly expressing human OX2 receptor were seeded in each well of 384 well black transparent bottom plate (BD Falcon) at 10,000 cells/well, and cultured for one day in a 5% CO2 incubator at 37° C. After removal of the medium in the cell plate, assay buffer A containing a calcium indicator (HBSS (Thermo Fisher Scientific), 20 mM HEPES (Thermo Fisher Scientific), 0.1% BSA (Sigma-Aldrich), 2.5 μg/mL Fluo-4 AM (DOJINDO Chemical), 0.08% Pluronic F127 (DOJINDO Chemical), 1.25 mM probenecid (DOJINDO Chemical)) was added thereto at 30 μL/well. The plate was stood for 30 min in a 5% CO2 incubator at 37° C., and further stood at room temperature for 30 min. A test compound prepared by diluting with assay buffer B (HBSS, 20 mM HEPES, 0.1% BSA) was added thereto at 10 μL/well, and the fluorescence value was measured by FDSSμCELL (Hamamatsu Photonics K.K.) every one sec for 1 min, and thereafter every two sec for 1 min 40 sec. The activity (%) of the test compound was calculated assuming that variation in the fluorescence value when DMSO was added instead of the test compound was 0%, and variation in the fluorescence value when orexin A (human) (PEPTIDE INSTITUTE, INC.) was added at the final concentration of 10 nM was 100%.

Compound | OX2R agonist activity (3 μM, %)
CCOCC1CCC(OCC2C(NS(C)(=O)=O)CCc3ccc(C)c(=O)n32)CC1 (racemic) [Example 81, rac-N-[(3S,4R)-4-({[(1s,4S)-4-(ethoxymethyl)cyclohexyl]oxy}methyl)-7-methyl-6-oxo-1,3,4,6-tetrahydro-2H-quinolizin-3-yl]methanesulfonamide] | 102%
Cc1ccc2n(c1=O)C(COC1CCC(COC3CCCCO3)CC1)C(NS(C)(=O)=O)CC2 (racemic) [Example 82, N-[(3SR,4RS)-7-methyl-4-(([(1s,4S)-4-{[(oxay-2-yl)oxy]methyl}cyclohexyl]oxy}methyl)-6-oxo-1,3,4,6-tetrahydro-2H-quinolizin-3-yl]methanesulfonamide] | 56%
COCCC1CCC(OCC2C(NS(C)(=O)=O)CCc3ccc(C)c(=O)n32)CC1 (racemic) [Example 83, rac-N-[(3S,4R)-4-({[(1s,4S)-4-(2-methoxyethyl)cyclohexyl]oxy}methyl)-7-methyl-6-oxo-1,3,4,6-tetrahydro-2H-quinolizin-3-yl]methanesulfonamide] | 91%
CCOC(=O)CC1CCC(OCC2C(NS(C)(=O)=O)CCc3ccc(C)c(=O)n32)CC1 (racemic) [Example 84, rac-ethyl [(1S,4s)-4-({(3S,4R)-3-[(methanesulfonyl)amino]-7-methyl-6-oxo-1,3,4,6-tetrahydro-2H-quinolizin-4-yl}methoxy)cyclohexyl]acetate] | 75%
Cc1ccc2n(c1=O)C(COC1CCC(CC(C)(C)O)CC1)C(NS(C)(=O)=O)CC2 (racemic) [Example 85, rac-N-[(3S,4R)-4-({[(1s,4S)-4-(2-hydroxy-2-methylpropyl)cyclohexyl]oxy}methyl)-7-methyl-6-oxo-1,3,4,6-tetrahydro-2H-quinolizin-3-yl]methanesulfonamide] | 59%
Cc1ccc2n(c1=O)C(COC1CCC(CC3CC3)CC1)C(NS(C)(=O)=O)CC2 (racemic) [Example 87, rac-N-[(3S,4R)-4-({[(1s,4S)-4-(cyclopropylmethyl)cyclohexyl]oxy}methyl)-7-methyl-6-oxo-1,3,4,6-tetrahydro-2H-quinolizin-3-yl]methanesulfonamide] | 89%
Cc1ccc2n(c1=O)C(COC1CCC(CC(C)C)CC1)C(NS(C)(=O)=O)CC2 (racemic) [Example 88, rac-N-[(3S,4R)-7-methyl-4-({[(1a,4S)-4-(2-methylpropyl)cyclohexyl]oxy}methyl)-6-oxo-1,3,4,6-tetrahydro-2H-quinolizin-3-yl]methanesulfonamide] | 95%
Cc1ccc2n(c1=O)C(COC1CCC(COC(C)C)CC1)C(NS(C)(=O)=O)CC2 (racemic) [Example 92, rac-N-[(3S,4R)-7-methyl-6-oxo-4-({[(1s,4S)-4-([(propan-2-yl)oxy]methyl}cyclohexyl]oxy}methyl)-1,3,4,6-tetrahydro-2H-quinolizin-3-yl]methanesulfonamide] | 90%
Cc1ccc2n(c1=O)C(COC1CCC(C3CCC3)CC1)C(NS(C)(=O)=O)CC2 (racemic) [Example 93, rac-N-[(3S,4R)-4-({[(1s,4S)-4-cyclobutylcyclohexyl]oxy}methyl)-7-methyl-6-oxo-1,3,4,6-tetrahydro-2H-quinolizin-3-yl]methanesulfonamide] | 97%
Cc1ccc2n(c1=O)C(COC1CCC(C3CC3C)CC1)C(NS(C)(=O)=O)CC2 (racemic) [Example 97, N-{7-methyl-4-[({(1S,4S)-4-[(1RS,2SR)-2-methylcyclopropyl]cyclohexyl)oxy)methyl]-6-oxo-1,3,4,6-tetrahydro-2H-quinolizin-3-yl]methanesulfonamide] | 94%
C=CC1CCC(OCC2C(NS(C)(=O)=O)CCc3ccc(C)c(=O)n32)CC1 (racemic) [Example 99, rac-N-[(3S,4R)-4-({[(1s,4S)-4-ethenylcyclohexyl]oxy}methyl)-7-methyl-6-oxo-1,3,4,6-tetrahydro-2H-quinolizin-3-yl]methanesulfonamide] | 91%
C/C=C\C1CCC(OCC2C(NS(C)(=O)=O)CCc3ccc(C)c(=O)n32)CC1 (racemic) [Example 110, rac-N-{(3S,4R)-7-methyl-6-oxo-4-[({(1s,4S)-4-[(1Z)-prop-1-en-1-yl]cyclohexyl}oxy)methyl]-1,3,4,6-tetrahydro-2H-quinolizin-3-yl}methanesulfonamide] | 91%
CCC1CCC(OCC2C(NS(C)(=O)=O)CCc3ccc(C4CC4)c(=O)n32)CC1 [Example 66, rel-N-[(3S,4R)-7-cyclopropyl-4-({[(1s,4S)-4-ethylcyclohexyl]oxy}methyl)-6-oxo-1,3,4,6-tetrahydro-2H-quinolizin-3-yl]methanesulfonamide] | 96%
CCc1ccc2n(c1=O)C(COC1CCC(C)CC1)C(NS(=O)(=O)CC)CC2 [Example 71, rel-N-[(3S,4R)-7-ethyl-4-(([(1s,4S)-4-methylcyclohexyl]oxy}methyl)-6-oxo-1,3,4,6-tetrahydro-2H-quinolizin-3-yl)ethanesulfonamide] | 99%

Second part, the compound after the results:

OX2R agonist activity (3 μM, %) | Compound
89% | Cc1ccc2n(c1=O)C(COC1CCC(CF)CC1)C(NS(C)(=O)=O)CC2 (racemic) [Example 86, rac-N-[(3S,4R)-4-({[(1s,4S)-4-(fluoromethyl)cyclohexyl]oxy}methyl)-7-methyl-6-oxo-1,3,4,6-tetrahydro-2H-quinolizin-3-yl]methanesulfonamide]
101% | C#CC1CCC(OCC2C(NS(C)(=O)=O)CCc3ccc(C)c(=O)n32)CC1 (racemic) [Example 108, rac-N-[(3S,4R)-4-({[(1s,4S)-4-ethynylcyclohexyl]oxy}methyl)-7-methyl-6-oxo-1,3,4,6-tetrahydro-2H-quinolizin-3-yl]methanesulfonamide]
96% | CC#CC1CCC(OCC2C(NS(C)(=O)=O)CCc3ccc(C)c(=O)n32)CC1 (racemic) [Example 109, rac-N-[(3S,4R)-7-methyl-6-oxo-4-({[(1s,4S)-4-(prop-1-yn-1-yl)cyclohexyl]oxy}methyl)-1,3,4,6-tetrahydro-2H-quinolizin-3-yl]methanesulfonamide]
99% | Cc1ccc2n(c1=O)C(COC1CCC(c3ccccn3)CC1)C(NS(C)(=O)=O)CC2 (racemic) [Example 116, rac-N-[(3S,4R)-7-methyl-6-oxo-4-({[(1s,4S)-4-(pyridin-2-yl)cyclohexyl]oxy)methyl)-1,3,4,6-tetrahydro-2H-quinolizin-3-yl]methanesulfonamide]
96% | Cc1ccc2n(c1=O)C(COC1CCC(C)CC1)C(NS(C)(=O)=O)CC2 [Example 1, rel-N-[(3S,4R)-7-methyl-4-({[(1s,4S)-4-methylcyclohexyl]oxy}methyl)-6-oxo-1,3,4,6-tetrahydro-2H-quinolizin-3-yl]methanesulfonamide]
112% | Cc1ccc2n(c1=O)C(COC1CCC(C)CC1)C(NS(C)(=O)=O)CC2 [Example 5, rel-N-[(3S,4R)-7-methyl-4-({[(1r,4R)-4-methylcyclohexyl]oxy}methyl)-6-oxo-1,3,4,6-tetrahydro-2H-quinolizin-3-yl]methanesulfonamide]
108% | Cc1ccc2n(c1=O)C(COC1CCC(c3ccccc3C(F)(F)F)CC1)C(NS(C)(=O)=O)CC2 [Example 72, rel-N-{(3S,4R)-7-methyl-6-oxo-4-[({(1s,4S)-4-[2-(trifluoromethyl)phenyl]cyclohexyl}oxy)methyl]-1,3,4,6-tetrahydro-2H-quinolizin-3-yl]methanesulfonamide]
89% | Cc1ccc2n(c1=O)C(COC1CCC(c3c(F)cccc3F)CC1)C(NS(C)(=O)=O)CC2 [Example 89, rel-N-[(3S,4R)-4-({[(1s,4S)-4-(2,6-difluorophenyl)cyclohexyl]oxy)methyl)-7-methyl-6-oxo-1,3,4,6-tetrahydro-2H-quinolizin-3-yl]methanesulfonamide]
87% | COc1ccccc1C1CCC(OCC2C(NS(C)(=O)=O)CCc3ccc(C)c(=O)n32)CC1 [Example 90, rel-N-[(3S,4R)-4-({[(1s,4S)-4-(2-methoxyphenyl)cyclohexyl]oxy}methyl)-7-methyl-6-oxo-1,3,4,6-tetrahydro-2H-quinolizin-3-yl]methanesulfonamide]
